Here are results for 14 compounds from patent US9469665B2, “Compound having lysophosphatidylserine receptor function modulation activity” (THE UNIVERSITY OF TOKYO, priority 2013, dated 2016).

The melting point is the temperature, or range, at which the solid turns liquid.

Counter-ions that a name gives are not always drawn.

One series has as its target T1, mouse GPR34 (Mus musculus, UniProt Q9R1K6).
T1 construct: expressed in transfected cells; host or cells: HEK293
The series is described as follows: TGFα shedding assay, agonistic activity on GPR34. The arrangement: key to GPR34/LPS2 agonistic activity, TGFα shedding assay: an activity that is 100 folds that of control compound 1 as +++++; an activity that is 10 folds that of control compound 1 as ++++; the activity of the control compound 1 (LPS18:1) as +++; an activity that is 1/10 as ++; an activity that is 1/100 as +; an activity below that as −. Conditions: for GPR34/LPS2 agonistic activity, TGFα shedding assay: HEK293 cells transfected with mouse GPR34 and AP labeled TGFα, activity relative to control compound 1 (LPS18:1) = +++. Type of series: cell-based. On the procedure:
(§1) [Test Example 1]Assay of Agonistic Activity by TGFα Shedding Assay
(§2) HEK293 cells were suspended in the Dulbecco's modified Eagle's medium (DMEM) containing 10% fetal bovine serum (FCS) to exist in an amount of 2.0×10^5 cells/mL, and they were seeded in 60 mm dishes at 4 mL per dish. Transfection of different expression vectors was performed using LipofectAMINE 2000 (Invitrogen) after 24 hours of culture under the presence of 5% CO2. For each 60 mm dish, 1 μg of AP labeled TGFα plasmid vectors were used, and 1 μg of pCAGGS plasmid vectors of mouse GPR34, P2Y10 or GPR174 were used. The plasmid vectors were prepared by methods disclosed in Patent Documents 2 and 5. Note that the AP labeled TGFα is a protein comprising a membrane-bound pro-TGFα whose N terminal end is fused with human placental alkaline phosphatase, and the plasmid vector of the AP labeled TGFα may be produced based on the teaching of Tokumaru et al., J Cell Biol 151, 209-220 (2000). After 24 hours of transfection, the cells were peeled off using trypsin/EDTA, and they were re-suspended in a culture medium to form an amount of 2.0×10^4 cells/well to be seeded to a 96-well plate. Hanks' Balanced Salt Solution (HBSS, containing 5 mM HEPES) was used for the re-suspended solution when stimulating with the compound. After it was left still for 30 min., subject compounds of various concentrations were added and the solutions were left still for another 1 hour under the presence of 5% CO2. The 96-well plate was subjected to centrifugation (190×g, 3 min.), then 80 μl of supernatant was transferred to a different 96-well plate. A reaction buffer (40 mM Tris-HCl (pH 9.5)) containing 10 mM p-nitrophenyl phosphate (p-NPP) was added in an amount of 80 μL to the supernatant and cells. The OD405 was measured with a micro plate reader (background), then after heating at 37° C. for an hour, OD405 was re-measured. The AP activity for each well was obtained by subtracting the background from the second absorbance and plugging the difference into the following formula.
(§3) In addition, the value obtained by subtracting the AP activity (%) of the non-stimulated group was used in the vertical axis to create a graph. The graphs of the test results for Example 3 (lysoPS sn-1-deoxy sn3 C3-ph-o-OBn-m-Oph) and Example 31 (lysoPS sn-1-OMe sn3 C3-ph-o-OBn-m-Oph) are shown in FIG. 1.
(§4) The obtained activity is shown by plotting the compound concentration and AP activity (%), then representing the activity of the control compound 1 (LPS18:1) as +++, an activity that is 10 folds that of control compound 1 as ++++, an activity that is 100 folds that of control compound 1 as +++++, an activity that is 1/10 as ++, and an activity that is 1/100 as +, and an activity below that as −.

A further series addresses T2, mouse P2Y10 (Mus musculus, UniProt Q8BFU7).
T2 construct: expressed in transfected cells; host or cells: HEK293
The series is described as follows: TGFα shedding assay, agonistic activity on P2Y10. Type of series: cell-based. Conditions: HEK293 cells transfected with mouse P2Y10 and AP labeled TGFα; activity relative to control compound 1 (LPS18:1) = +++. The arrangement: key: an activity that is 100 folds that of control compound 1 as +++++; an activity that is 10 folds that of control compound 1 as ++++; the activity of the control compound 1 (LPS18:1) as +++; an activity that is 1/10 as ++; an activity that is 1/100 as +; an activity below that as −. On the procedure: as §1, §2, §3, §4

In a further series the target is T3, mouse GPR174 (Mus musculus, UniProt Q3U507).
T3 construct: expressed in transfected cells; host or cells: HEK293
T3 sequence (Q3U507 whole entry): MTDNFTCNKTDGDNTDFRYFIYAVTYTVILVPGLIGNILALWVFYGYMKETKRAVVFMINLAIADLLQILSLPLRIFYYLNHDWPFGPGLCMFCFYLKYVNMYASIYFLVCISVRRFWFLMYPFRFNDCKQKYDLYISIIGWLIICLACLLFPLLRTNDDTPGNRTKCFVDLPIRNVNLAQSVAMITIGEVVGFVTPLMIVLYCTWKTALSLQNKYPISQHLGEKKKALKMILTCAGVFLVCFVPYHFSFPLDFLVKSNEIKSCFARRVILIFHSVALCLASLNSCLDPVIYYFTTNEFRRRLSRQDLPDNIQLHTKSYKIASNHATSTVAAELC
The series is described as follows: TGFα shedding assay, agonistic activity on GPR174. It is filed as cell-based. The arrangement: key: an activity that is 100 folds that of control compound 1 as +++++; an activity that is 10 folds that of control compound 1 as ++++; the activity of the control compound 1 (LPS18:1) as +++; an activity that is 1/10 as ++; an activity that is 1/100 as +; an activity below that as −. As to conditions: HEK293 cells transfected with mouse GPR174 and AP labeled TGFα; activity relative to control compound 1 (LPS18:1) = +++. On the procedure: as §1, §2, §3, §4

T1 sequence (Q9R1K6 whole entry): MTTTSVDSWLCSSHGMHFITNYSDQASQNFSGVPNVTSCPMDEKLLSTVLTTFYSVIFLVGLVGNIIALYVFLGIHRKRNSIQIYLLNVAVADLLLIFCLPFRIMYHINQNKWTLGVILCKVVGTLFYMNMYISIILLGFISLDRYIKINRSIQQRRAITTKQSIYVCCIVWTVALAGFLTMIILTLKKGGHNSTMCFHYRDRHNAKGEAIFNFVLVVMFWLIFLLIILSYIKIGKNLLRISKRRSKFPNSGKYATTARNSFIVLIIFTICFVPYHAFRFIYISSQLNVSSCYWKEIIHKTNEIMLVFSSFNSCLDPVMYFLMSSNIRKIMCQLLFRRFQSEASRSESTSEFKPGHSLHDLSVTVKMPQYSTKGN
T2 sequence (Q8BFU7 whole entry): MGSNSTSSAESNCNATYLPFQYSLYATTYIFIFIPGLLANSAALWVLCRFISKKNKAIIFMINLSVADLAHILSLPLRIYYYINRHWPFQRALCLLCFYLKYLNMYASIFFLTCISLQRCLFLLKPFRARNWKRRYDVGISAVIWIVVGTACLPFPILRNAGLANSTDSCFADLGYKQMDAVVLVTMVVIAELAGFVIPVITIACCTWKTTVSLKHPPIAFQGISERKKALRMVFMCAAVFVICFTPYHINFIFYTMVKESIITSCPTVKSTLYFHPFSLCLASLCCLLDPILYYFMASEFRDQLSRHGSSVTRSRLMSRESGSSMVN

`CCCCCCCCCCCOc1ccc(C(C)(C)C)cc1CCC(=O)O[C@H]1COCC[C@@H]1OP(=O)(O)OC[C@H](N)C(=O)O` (as salt: TFA) [Example 12, (2S)-2-amino-3-({(3S,4S)-3-[3-(5-tert-butyl-2-undecyloxy-phenyl)-propionyloxy]-tetrahydro-pyran-4-yloxy}-hydroxy-phosphoryloxy)-propionic acid] showed a melting point of 144 to 144.5 °C.
On the same count and under the same terms, the value for `CCCCCCCCCCCOc1ccccc1CCC(=O)O[C@H]1CCOC[C@@H]1OP(=O)(O)OC[C@H](N)C(=O)O` (as salt: TFA) [Example 10, (2S)-2-amino-3-(hydroxy-{(3S,4S)-4-[3-(2-undecyloxy-phenyl)-propionyloxy]-tetrahydro-pyran-3-yloxy}-phosphoryloxy)-propionic acid] was 96.5 to 98.5 °C.
For the compound `CCCCCCCCCCCOc1ccccc1CCC(=O)O[C@H]1CCOC[C@@H]1OP(=O)(O)OC[C@H](N)C(=O)O` [Example 10, (2S)-2-amino-3-(hydroxy-{(3S,4S)-4-[3-(2-undecyloxy-phenyl)-propionyloxy]-tetrahydro-pyran-3-yloxy}-phosphoryloxy)-propionic acid], the “GPR34/LPS2 agonistic activity, TGFα shedding assay” value (shortened to “GPR34/LPS2 agonistic activity”) on mouse GPR34 was “−”. Moreover, on mouse P2Y10, the “P2Y10/LPS2 agonistic activity, TGFα shedding assay” value (“P2Y10/LPS2 agonistic activity” for short) is on record as “++~+++”. Besides, the “GPR174/LPS3 agonistic activity, TGFα shedding assay” value (“GPR174/LPS3 agonistic activity” below) on mouse GPR174 is “−”.
Consider `N[C@@H](COP(=O)(O)OC[C@H]1OCCC[C@@H]1OC(=O)CCc1ccccc1OCc1cccc(Oc2ccccc2)c1)C(=O)O` [Example 13, (2S)-2-amino-3-[hydroxyl-((2R,3S)-3-{3-[2-(3-phenoxy-benzyloxy)-phenyl]-propionyloxy}-tetrahydro-pyran-2-ylmethoxy)-phosphoryloxy]-propionic acid], for which the “GPR34/LPS2 agonistic activity” value at mouse GPR34 was “++”. Moreover, on mouse P2Y10, the “P2Y10/LPS2 agonistic activity” value is listed as “−~+”. Further, at mouse GPR174, the “GPR174/LPS3 agonistic activity” value is on record as “−”.
Consider `COC[C@H](COC(=O)CCc1ccccc1OCc1cccc(Oc2ccccc2)c1)OP(=O)(O)OC[C@H](N)C(=O)O` [Example 31, (2S)-2-amino-3-[hydroxy-((1R)-1-methoxymethyl-2-{3-[2-(3-phenoxy-benzyloxy)-phenyl]-propionyloxy}-ethoxy)-phosphoryloxy]-propionic acid], for which the “GPR34/LPS2 agonistic activity” value on mouse GPR34 is given as “+++++”. The “receptor selectivity of agonist activity among GPR34, P2Y10, GPR174 (graphs of FIG. 1)” value at mouse GPR34 (TGFα shedding assay, HEK293 cells, AP activity (%) vs concentration) was “agonists having selectivity against GPR34”. For the same compound, at mouse P2Y10, the “P2Y10/LPS2 agonistic activity” value is “+~++”. Further, at mouse GPR174, the “GPR174/LPS3 agonistic activity” value is listed as “−”.
In the case of `CCCCCCCC/C=C\CCCCCCCC(=O)OC[C@H]1OCCC[C@@H]1OP(=O)(O)OC[C@H](N)C(=O)O` [Example 20, (9Z)-Octadeca-9-enoic acid (2R,3S)-3-[((2S)-2-amino-2-carboxy-ethoxy)-hydroxy-phosphoryloxy]-tetrahydro-pyran-2-ylmethyl ester], the “GPR34/LPS2 agonistic activity” value on mouse GPR34 is “+++~++++”. Besides, the “P2Y10/LPS2 agonistic activity” value at mouse P2Y10 was “+”. Moreover, the “GPR174/LPS3 agonistic activity” value on mouse GPR174 is “−”.
The matching figures for `CCCCCCCC/C=C\CCCCCCCC(=O)OC[C@H]1OCCC[C@H]1OP(=O)(O)OC[C@H](N)C(=O)O` [Example 15, (9Z)-Octadeca-9-enoic acid (2R,3R)-3-[((2S)-2-amino-2-carboxy-ethoxy)-hydroxy-phosphoryloxy]-tetrahydropyran-2-ylmethyl ester]: “++”, “−” and “−”.
For `CCCCCCCCCCCOc1ccc(C(C)(C)C)cc1CCC(=O)O[C@H]1COCC[C@@H]1OP(=O)(O)OC[C@H](N)C(=O)O` [Example 12, (2S)-2-amino-3-({(3S,4S)-3-[3-(5-tert-butyl-2-undecyloxy-phenyl)-propionyloxy]-tetrahydro-pyran-4-yloxy}-hydroxy-phosphoryloxy)-propionic acid] the same measures were “−”, “+” and “−”.
For `N[C@@H](COP(=O)(O)O[C@H]1C=CCO[C@@H]1COC(=O)CCc1ccccc1OCc1cccc(Oc2ccccc2)c1)C(=O)O` [Example 24, (2S)-2-amino-3-[hydroxy-((2R,3S)-2-{3-[2-(3-phenoxy-benzyloxy)-phenyl]-propionyloxymethyl}-3,6-dihydro-2H-pyran-3-yloxy)-phosphoryloxy]-propionic acid] the same measures were “+++”, “++~+++” and “−”.
Consider `N[C@@H](COP(=O)(O)OC[C@H]1OCCC[C@H]1OC(=O)CCc1ccccc1OCc1cccc(Oc2ccccc2)c1)C(=O)O` [Example 18], for which the “GPR34/LPS2 agonistic activity” value on mouse GPR34 is reported as “++++~+++++”. Also, at mouse P2Y10, the “P2Y10/LPS2 agonistic activity” value is “−”. On mouse GPR174, the “GPR174/LPS3 agonistic activity” value is “−”.
Turning to `N[C@@H](COP(=O)(O)O[C@@H]1C=CCO[C@@H]1COC(=O)CCc1ccccc1OCc1cccc(Oc2ccccc2)c1)C(=O)O` [Example 26, (2S)-2-amino-3-[hydroxyl-((2R,3R)-2-{3-[2-(3-phenoxybenzyloxy)-phenyl]-propionyloxymethyl}-3,6-dihydro-2H-pyran-3-yloxy)-phosphoryloxy]-propionic acid], at mouse GPR34, the “GPR34/LPS2 agonistic activity” value is recorded as “+++~++++”. Moreover, the “P2Y10/LPS2 agonistic activity” value at mouse P2Y10 is recorded as “++”. In addition, the “GPR174/LPS3 agonistic activity” value at mouse GPR174 is reported as “−”.
For `CCCCCCCC/C=C\CCCCCCCC(=O)OC[C@H]1OCC=C[C@@H]1OP(=O)(O)OC[C@H](N)C(=O)O` [Example 23, (9Z)-Octadeca-9-enoic acid (2R,3S)-3-[((2S)-2-amino-2-carboxy-ethoxy)-hydroxy-phosphoryloxy]-3,6-dihydro-2H-pyran-2-ylmethyl ester] the same measures were “++”, “++” and “−”.
As to `CCCCCCCC/C=C\CCCCCCCC(=O)OC[C@@H](COCC)OP(=O)(O)OC[C@H](N)C(=O)O` [Example 6, (9Z)-Octadeca-9-enoic acid (2R)-2-[((2S)-2-amino-2-carboxy-ethoxy)-hydroxy-phosphoryloxy]-3-ethoxypropyl ester], at mouse GPR34, the “GPR34/LPS2 agonistic activity” value is on record as “+++++”. Besides, on mouse P2Y10, the “P2Y10/LPS2 agonistic activity” value was “+”. Further, the “GPR174/LPS3 agonistic activity” value at mouse GPR174 was “−”.
For `CCCCCCCCCCCOc1ccccc1CCC(=O)O[C@H]1COCC[C@@H]1OP(=O)(O)OC[C@H](N)C(=O)O` [Example 11, (2S)-2-amino-3-(hydroxy-{(3S,4S)-3-[3-(2-undecyloxy-phenyl)-propionyloxy]-tetrahydro-pyran-4-yloxy}-phosphoryloxy)-propionic acid] the same measures were “−”, “++” and “−”.
